Measurements from BigSolDB 2.1.

Cl.c1ccc([C@H]2CN3CCSC3=N2)cc1
Settings | solubility (mole fraction)
in DMSO, 293.15 K | 0.0117
in DMSO, 298.15 K | 0.0129
in DMSO, 303.15 K | 0.014
in DMSO, 308.15 K | 0.0157
in DMSO, 313.15 K | 0.0173
in DMSO, 318.15 K | 0.0193
in DMSO, 323.15 K | 0.0218
in DMSO, 328.15 K | 0.0237
in DMSO, 333.15 K | 0.0265
in ethanol, 283.15 K | 0.00753
in ethanol, 288.15 K | 0.00881
in ethanol, 293.15 K | 0.0101
in ethanol, 298.15 K | 0.0119
in ethanol, 303.15 K | 0.0153
in ethanol, 308.15 K | 0.0178
in ethanol, 313.15 K | 0.0201
in ethanol, 318.15 K | 0.0244
in ethanol, 323.15 K | 0.0289
in isobutanol, 283.15 K | 0.000869
in isobutanol, 288.15 K | 0.00131
in isobutanol, 293.15 K | 0.00182
in isobutanol, 298.15 K | 0.00247
in isobutanol, 303.15 K | 0.00334
in isobutanol, 308.15 K | 0.00447
in isobutanol, 313.15 K | 0.00577
in isobutanol, 318.15 K | 0.00747
in isobutanol, 323.15 K | 0.00937
in isopentanol, 283.15 K | 0.00108
in isopentanol, 288.15 K | 0.00134
in isopentanol, 293.15 K | 0.00182
in isopentanol, 298.15 K | 0.00234
in isopentanol, 303.15 K | 0.00287
in isopentanol, 308.15 K | 0.00402
in isopentanol, 313.15 K | 0.00542
in isopentanol, 318.15 K | 0.00676
in isopentanol, 323.15 K | 0.00873
in isopropanol, 283.15 K | 0.000856
in isopropanol, 288.15 K | 0.00104
in isopropanol, 293.15 K | 0.00138
in isopropanol, 298.15 K | 0.00179
in isopropanol, 303.15 K | 0.00225
in isopropanol, 308.15 K | 0.00275
in isopropanol, 313.15 K | 0.00319
in isopropanol, 318.15 K | 0.00401
in isopropanol, 323.15 K | 0.00475
in methanol, 283.15 K | 0.0298
in methanol, 288.15 K | 0.0357
in methanol, 293.15 K | 0.0429
in methanol, 298.15 K | 0.0513
in methanol, 303.15 K | 0.0595
in methanol, 308.15 K | 0.0696
in methanol, 313.15 K | 0.0816
in methanol, 318.15 K | 0.0955
in methanol, 323.15 K | 0.109
in n-butanol, 283.15 K | 0.00182
in n-butanol, 288.15 K | 0.00236
in n-butanol, 293.15 K | 0.00311
in n-butanol, 298.15 K | 0.00407
in n-butanol, 303.15 K | 0.00542
in n-butanol, 308.15 K | 0.00699
in n-butanol, 313.15 K | 0.00888
in n-butanol, 318.15 K | 0.0111
in n-butanol, 323.15 K | 0.0139
in n-hexanol, 283.15 K | 0.000727
in n-hexanol, 288.15 K | 0.000986
in n-hexanol, 293.15 K | 0.00136
in n-hexanol, 298.15 K | 0.00198
in n-hexanol, 303.15 K | 0.00226
in n-hexanol, 308.15 K | 0.00283
in n-hexanol, 313.15 K | 0.0035
in n-hexanol, 318.15 K | 0.00437
in n-hexanol, 323.15 K | 0.00524
in n-pentanol, 283.15 K | 0.000747
in n-pentanol, 288.15 K | 0.00112
in n-pentanol, 293.15 K | 0.00161
in n-pentanol, 298.15 K | 0.00209
in n-pentanol, 303.15 K | 0.00293
in n-pentanol, 308.15 K | 0.00377
in n-pentanol, 313.15 K | 0.00471
in n-pentanol, 318.15 K | 0.00605
in n-pentanol, 323.15 K | 0.00745
in n-propanol, 283.15 K | 0.00412
in n-propanol, 288.15 K | 0.00492
in n-propanol, 293.15 K | 0.00631
in n-propanol, 298.15 K | 0.00751
in n-propanol, 303.15 K | 0.00903
in n-propanol, 308.15 K | 0.0109
in n-propanol, 313.15 K | 0.013
in n-propanol, 318.15 K | 0.0149
in n-propanol, 323.15 K | 0.0169
in sec-butanol, 283.15 K | 0.000587
in sec-butanol, 288.15 K | 0.000722
in sec-butanol, 293.15 K | 0.000867
in sec-butanol, 298.15 K | 0.00105
in sec-butanol, 303.15 K | 0.00123
in sec-butanol, 308.15 K | 0.00148
in sec-butanol, 313.15 K | 0.00177
in sec-butanol, 318.15 K | 0.00213
in sec-butanol, 323.15 K | 0.00252
in water, 283.15 K | 0.0664
in water, 285.65 K | 0.0718
in water, 288.15 K | 0.0769
in water, 290.65 K | 0.0825
in water, 293.15 K | 0.0879
in water, 295.65 K | 0.0943
in water, 298.15 K | 0.101
in water, 300.65 K | 0.106
in water, 303.15 K | 0.113
in water, 305.65 K | 0.12
in water, 308.15 K | 0.127
